How the values were obtained:
Format in all cases: ADME, cell-based
Conditions in all cases: human
[1] = system: A549; experiment: Metabolic stability in A549 cells assessed as rate of 6-thioguanine production in anoxic condition
[2] = system: A549; experiment: Metabolic stability in A549 cells assessed as rate of prodrug loss in aerobic condition
[3] = system: A549; experiment: Metabolic stability in A549 cells assessed as rate of 6-thioguanine production in aerobic condition
[4] = system: A549; experiment: Metabolic stability in A549 cells assessed as rate of prodrug loss in anoxic condition

SMILES | Activity [1] | Activity [2] | Activity [3] | Activity [4]
Nc1nc(SCc2ccc([N+](=O)[O-])cc2)c2nc[nH]c2n1 | 0 nM/min | 0 nM/min | 1.7 nM/min | 39 nM/min
CC(C)(Sc1nc(N)nc2[nH]cnc12)c1ccc([N+](=O)[O-])cc1 | 72 nM/min | 9.5 nM/min | 1.7 nM/min | 100 nM/min

Reference: ChEMBL document CHEMBL1140001, “Hypoxia-driven elimination of thiopurines from their nitrobenzyl prodrugs” (Bioorg Med Chem Lett, 2007)
